From patent US10758534B2 (Vertex Pharmaceuticals Incorporated, priority 2014, dated 2020)

These compounds were tested against T1, F508del (Homo sapiens, UniProt P13569, DEL508-508) (assay: Protocol 1: membrane potential optical assay (FLIPR III, voltage sensing dye), identification of potentiator compounds). Conditions: Table 3, compounds of Table 1.
T1 construct: expressed in transfected cells
Assay type: cell-based
Summary of the method: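 Membrane potential in forskolin-activated, temperature-rescued F508del NIH 3T3 cells is followed with a voltage-sensing dye on FLIPR III. A chloride ion gradient created at the single addition step provides the driving force, after prior compound treatment.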

T1 sequence (P13569 with tags, fused parts or gaps DEL508-508): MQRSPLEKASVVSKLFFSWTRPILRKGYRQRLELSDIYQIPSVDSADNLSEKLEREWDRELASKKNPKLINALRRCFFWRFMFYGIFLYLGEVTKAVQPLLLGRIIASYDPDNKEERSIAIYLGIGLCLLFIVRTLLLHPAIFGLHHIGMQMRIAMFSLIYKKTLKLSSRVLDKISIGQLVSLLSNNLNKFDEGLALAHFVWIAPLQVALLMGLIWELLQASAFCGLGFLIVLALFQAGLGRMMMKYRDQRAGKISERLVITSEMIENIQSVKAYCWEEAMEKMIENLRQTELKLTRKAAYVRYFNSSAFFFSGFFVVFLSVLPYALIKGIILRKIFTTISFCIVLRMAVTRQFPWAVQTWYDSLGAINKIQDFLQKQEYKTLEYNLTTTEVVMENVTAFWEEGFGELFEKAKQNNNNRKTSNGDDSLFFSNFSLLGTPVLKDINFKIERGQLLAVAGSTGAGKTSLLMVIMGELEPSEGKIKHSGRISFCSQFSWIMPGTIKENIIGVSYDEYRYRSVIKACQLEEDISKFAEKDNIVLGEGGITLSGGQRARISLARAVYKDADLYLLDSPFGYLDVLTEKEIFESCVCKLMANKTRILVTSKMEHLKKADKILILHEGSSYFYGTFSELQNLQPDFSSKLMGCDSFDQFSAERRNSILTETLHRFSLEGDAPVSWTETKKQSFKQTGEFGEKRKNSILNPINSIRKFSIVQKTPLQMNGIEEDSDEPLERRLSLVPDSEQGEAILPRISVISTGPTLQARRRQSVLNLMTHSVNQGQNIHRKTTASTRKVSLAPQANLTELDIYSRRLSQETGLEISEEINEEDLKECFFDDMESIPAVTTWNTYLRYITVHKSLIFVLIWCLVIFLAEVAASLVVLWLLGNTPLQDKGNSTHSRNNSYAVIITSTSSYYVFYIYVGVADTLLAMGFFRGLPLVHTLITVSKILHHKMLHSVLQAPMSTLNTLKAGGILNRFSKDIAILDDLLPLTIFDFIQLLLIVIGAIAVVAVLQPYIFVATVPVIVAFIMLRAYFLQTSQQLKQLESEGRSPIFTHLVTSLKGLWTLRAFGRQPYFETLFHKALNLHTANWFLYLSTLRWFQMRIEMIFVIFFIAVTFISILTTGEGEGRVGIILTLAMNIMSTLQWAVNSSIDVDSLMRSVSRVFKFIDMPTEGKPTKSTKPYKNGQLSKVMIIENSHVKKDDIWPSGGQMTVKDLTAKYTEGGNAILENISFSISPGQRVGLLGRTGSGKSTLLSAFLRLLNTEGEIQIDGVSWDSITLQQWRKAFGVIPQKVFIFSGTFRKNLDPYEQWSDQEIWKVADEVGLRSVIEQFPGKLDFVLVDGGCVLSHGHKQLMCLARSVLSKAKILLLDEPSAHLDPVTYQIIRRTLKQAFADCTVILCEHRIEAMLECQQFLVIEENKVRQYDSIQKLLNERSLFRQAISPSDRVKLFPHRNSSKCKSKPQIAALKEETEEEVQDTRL

Structure (SMILES)	EC30
CC(C)COc1cc(F)cc(-c2ccc(C(=O)NS(=O)(=O)c3ccccn3)c(N3CC(C)CC3(C)C)n2)c1 (centres unmarked) [Compound 1063, 6-(3-fluoro-5-isobutoxy-phenyl)-N-(2-pyridylsulfonyl)-2-(2,2,4-trimethylpyrrolidin-1-yl)pyridine-3-carboxamide]	+++ (“+++” means <3 uM)
CC(C)(C)c1ccc(C(=O)NS(=O)(=O)c2ccc(N)cc2)c(NCc2ccccc2)n1 [Compound 1064, N-(4-aminophenyl)sulfonyl-2-(benzylamino)-6-tert-butyl-pyridine-3-carboxamide]	+++ (“+++” means <3 uM)
CC(C)COc1cc(F)cc(-c2ccc(C(=O)NS(=O)(=O)c3cccc(N)n3)c(N3CCC(C)(C)[C@H]3C)n2)c1 [Compound 1065, N-[(6-amino-2-pyridyl)sulfonyl]-6-(3-fluoro-5-isobutoxy-phenyl)-2-[(2R)-2,3,3-trimethylpyrrolidin-1-yl]pyridine-3-carboxamide]	+++ (“+++” means <3 uM)
Cc1ccc(-c2ccc(C(=O)NS(=O)(=O)c3nccnc3N)c(NCC3(C)CCOCC3)n2)cc1 [Compound 1066, N-(3-aminopyrazin-2-yl)sulfonyl-2-[(4-methyltetrahydropyran-4-yl)methylamino]-6-(p-tolyl)pyridine-3-carboxamide]	++ (“++” means between 3 uM and 10 uM)
CCC(Oc1nc(-c2cc(F)cc(OCC(C)C)c2)ccc1C(=O)NS(=O)(=O)c1cccc(N)n1)c1ccccc1 (centres unmarked) [Compound 1068, N-[(6-amino-2-pyridyl)sulfonyl]-6-(3-fluoro-5-isobutoxy-phenyl)-2-(1-phenylpropoxy)pyridine-3-carboxamide]	+++ (“+++” means <3 uM)
CC(C)COc1cc(F)cc(-c2ccc(C(=O)NS(=O)(=O)c3ccccn3)c(N3CCC(C)(C)CC3)n2)c1 [Compound 1069, 2-(4,4-dimethyl-1-piperidyl)-6-(3-fluoro-5-isobutoxy-phenyl)-N-(2-pyridylsulfonyl)pyridine-3-carboxamide]	+++ (“+++” means <3 uM)
Cc1cc(C)c(Oc2nc(OC(C)(C)C)ccc2C(=O)NS(=O)(=O)c2cccc(N)n2)c(C)c1 [Compound 1070, N-[(6-amino-2-pyridyl)sulfonyl]-6-tert-butoxy-2-(2,4,6-trimethylphenoxy)pyridine-3-carboxamide]	+++ (“+++” means <3 uM)
CC(C)COc1cc(F)cc(-c2ccc(C(=O)NS(=O)(=O)c3cccc(N)n3)c(N3CC(=O)CC3(C)C)n2)c1 [Compound 1073, N-[(6-amino-2-pyridyl)sulfonyl]-2-(2,2-dimethyl-4-oxo-pyrrolidin-1-yl)-6-(3-fluoro-5-isobutoxy-phenyl)pyridine-3-carboxamide]	+ (“+” means greater than 10 uM)
CC(C)Oc1ccc(-c2ccc(C(=O)NS(=O)(=O)c3ccn[nH]3)c(N3[C@H](C)CC[C@@H]3C)n2)cn1 [Compound 1074, 2-[(2S,5R)-2,5-dimethylpyrrolidin-1-yl]-6-(6-isopropoxy-3-pyridyl)-N-(1H-pyrazol-5-ylsulfonyl)pyridine-3-carboxamide]	++ (“++” means between 3 uM and 10 uM)
CC(C)COc1cc(F)cc(-c2ccc(C(=O)NS(=O)(=O)c3cccc(N)n3)c(OC3C[C@@H]4C[C@@H]4C3)n2)c1 (stereo partly drawn) [Compound 1077, N-[(6-amino-2-pyridyl)sulfonyl]-2-[[(1R,5S)-3-bicyclo[3.1.0]hexanyl]oxy]-6-(3-fluoro-5-isobutoxy-phenyl)pyridine-3-carboxamide]	+++ (“+++” means <3 uM)
Cc1cc(C)c(Oc2nc(-c3ccc(OCC(C)C)cc3)ccc2C(=O)NS(=O)(=O)c2ccc[nH]c2=O)c(C)c1 [Compound 1079, 6-(4-isobutoxyphenyl)-N-[(2-oxo-1H-pyridin-3-yl)sulfonyl]-2-(2,4,6-trimethylphenoxy)pyridine-3-carboxamide]	+++ (“+++” means <3 uM)
CC(C)Oc1ccc(-c2ccc(C(=O)NS(=O)(=O)c3cccc(N)n3)c(N3CCC(Oc4ccccc4)CC3)n2)cn1 [Compound 1080, N-[(6-amino-2-pyridyl)sulfonyl]-6-(6-isopropoxy-3-pyridyl)-2-(4-phenoxy-1-piperidyl)pyridine-3-carboxamide]	+++ (“+++” means <3 uM)
CC(C)COc1cc(F)cc(-c2ccc(C(=O)NS(=O)(=O)c3ccn[nH]3)c(N3CCC(C)CC3)n2)c1 [Compound 1083, 6-(3-fluoro-5-isobutoxy-phenyl)-2-(4-methyl-1-piperidyl)-N-(1H-pyrazol-5-ylsulfonyl)pyridine-3-carboxamide]	+++ (“+++” means <3 uM)
Cc1ccc(-c2ccc(C(=O)NS(=O)(=O)c3nccnc3N)c(N3CCC(C)CC3)n2)cc1 [Compound 1084, N-(3-aminopyrazin-2-yl)sulfonyl-2-(4-methyl-1-piperidyl)-6-(p-tolyl)pyridine-3-carboxamide]	++ (“++” means between 3 uM and 10 uM)
CC(C)COc1cc(F)cc(-c2ccc(C(=O)NS(=O)(=O)c3ccn[nH]3)c(N3CCC(OCC4CC4)CC3)n2)c1 [Compound 1088, 2-[4-(cyclopropylmethoxy)-1-piperidyl]-6-(3-fluoro-5-isobutoxy-phenyl)-N-(1H-pyrazol-5-ylsulfonyl)pyridine-3-carboxamide]	+++ (“+++” means <3 uM)
COc1cccc(S(=O)(=O)NC(=O)c2ccc(-c3cc(F)cc(OCC(C)C)c3)nc2N2CCC(C)(C)CC2)n1 [Compound 1090, 2-(4,4-dimethyl-1-piperidyl)-6-(3-fluoro-5-isobutoxy-phenyl)-N-[(6-methoxy-2-pyridyl)sulfonyl]pyridine-3-carboxamide]	+++ (“+++” means <3 uM)

Further lines, results first:

EC30	Structure (SMILES)
+++ (“+++” means <3 uM)	CC1CN(c2nc(-c3cccc(OCC(C)(C)C)n3)ccc2C(=O)NS(=O)(=O)c2cccc(N)n2)C(C)(C)C1 (centres unmarked) [Compound 1062, N-[(6-amino-2-pyridyl)sulfonyl]-6-[6-(2,2-dimethylpropoxy)-2-pyridyl]-2-(2,2,4-trimethylpyrrolidin-1-yl)pyridine-3-carboxamide]
+++ (“+++” means <3 uM)	CC1CN(c2nc(-c3cnn(C(C)C)c3)ccc2C(=O)NS(=O)(=O)c2cccc(N)n2)C(C)(C)C1 (centres unmarked) [Compound 1067, N-[(6-amino-2-pyridyl)sulfonyl]-6-(1-isopropylpyrazol-4-yl)-2-(2,2,4-trimethylpyrrolidin-1-yl)pyridine-3-carboxamide]
+++ (“+++” means <3 uM)	Cn1ccc2cccc(Oc3nc(C(C)(C)C)ccc3C(=O)NS(=O)(=O)c3cccc(N)n3)c21 [Compound 1071, N-[(6-amino-2-pyridyl)sulfonyl]-6-tert-butyl-2-(1-methylindol-7-yl)oxy-pyridine-3-carboxamide]
++ (“++” means between 3 uM and 10 uM)	CC(C)Oc1ccc(-c2ccc(C(=O)NS(=O)(=O)c3cccc(N)n3)c(N3Cc4ccccc4C3)n2)cn1 [Compound 1072, N-[(6-amino-2-pyridyl)sulfonyl]-2-isoindolin-2-yl-6-(6-isopropoxy-3-pyridyl)pyridine-3-carboxamide]
+++ (“+++” means <3 uM)	COc1cccc2c1C(C)(C(=O)NS(=O)(=O)c1cccc(N)n1)N(Cc1c(C)cc(C)cc1C)C2 (centres unmarked) [Compound 1075, N-[(6-amino-2-pyridyl)sulfonyl]-7-methoxy-1-methyl-2-[(2,4,6-trimethylphenyl)methyl]isoindoline-1-carboxamide]
+++ (“+++” means <3 uM)	CCC(CC)Oc1ccc(-c2ccc(C(=O)NS(=O)(=O)c3cccc(N)n3)c(N3CC(C)CC3(C)C)n2)cn1 (centres unmarked) [Compound 1076, N-[(6-amino-2-pyridyl)sulfonyl]-6-[6-(1-ethylpropoxy)-3-pyridyl]-2-(2,2,4-trimethylpyrrolidin-1-yl)pyridine-3-carboxamide]
++ (“++” means between 3 uM and 10 uM)	Cc1ccc(-c2ccc(C(=O)NS(=O)(=O)c3cccc(N)n3)c(N3[C@H](C)CC[C@@H]3C)n2)cc1 [Compound 1078, N-[(6-amino-2-pyridyl)sulfonyl]-2-[(2R,5S)-2,5-dimethylpyrrolidin-1-yl]-6-(p-tolyl)pyridine-3-carboxamide]
++ (“++” means between 3 uM and 10 uM)	CC(C)Oc1ccc(-c2ccc(C(=O)NS(=O)(=O)c3cccc(N)n3)c(N3CC[C@H](C)C3)n2)cn1 [Compound 1081, N-[(6-amino-2-pyridyl)sulfonyl]-6-(6-isopropoxy-3-pyridyl)-2-[(3S)-3-methylpyrrolidin-1-yl]pyridine-3-carboxamide]
+ (“+” means greater than 10 uM)	Cc1cc(C)c(Cn2c(C(=O)NS(=O)(=O)c3cccc(N)c3)cc3ccc(C#N)cc32)c(C)c1 [Compound 1082, N-(3-aminophenyl)sulfonyl-6-cyano-1-[(2,4,6-trimethylphenyl)methyl]indole-2-carboxamide]
+++ (“+++” means <3 uM)	Cc1cc(C)c(CN2C(C(=O)NS(=O)(=O)c3ccc[nH]c3=O)c3ccccc3C2(C)C)c(C)c1 (centres unmarked) [Compound 1085, 3,3-dimethyl-N-[(2-oxo-1H-pyridin-3-yl)sulfonyl]-2-[(2,4,6-trimethylphenyl)methyl]isoindoline-1-carboxamide]
++ (“++” means between 3 uM and 10 uM)	CCc1cccc2c(C(=O)NS(=O)(=O)c3cccc(N)n3)n(Cc3c(C)cc(C)cc3C)nc12 [Compound 1086, N-[(6-amino-2-pyridyl)sulfonyl]-7-ethyl-2-[(2,4,6-trimethylphenyl)methyl]indazole-3-carboxamide]
+++ (“+++” means <3 uM)	CCC1CCCN1c1nc(-c2ccc(OC(C)C)nc2)ccc1C(=O)NS(=O)(=O)c1cccc(N)n1 (centres unmarked) [Compound 1087, N-[(6-amino-2-pyridyl)sulfonyl]-2-(2-ethylpyrrolidin-1-yl)-6-(6-isopropoxy-3-pyridyl)pyridine-3-carboxamide]
+++ (“+++” means <3 uM)	Cc1cc(C#N)cc(C)c1Oc1nc(C(C)(C)C)ccc1C(=O)NS(=O)(=O)c1cccc(N)n1 [Compound 1089, N-[(6-amino-2-pyridyl)sulfonyl]-6-tert-butyl-2-(4-cyano-2,6-dimethyl-phenoxy)pyridine-3-carboxamide]
